Test results as given in PMC9610975, “Microemulsions Enhance the In Vitro Antioxidant Activity of Oleanolic Acid in RAW 264.7 Cells” (Pharmaceutics, 2022).
Values after ≈ are worked out from the molar mass of the structure shown.

How the values were obtained:
RAW 264.7 cells [1] = assay: Intracellular ROS production (DCFDA probe) under LPS; assay type: cell-based, murine; conditions: 18 h
Experimental: In in vitro cell-based experiments, cells were incubated in serum-free DMEM medium (starvation medium) for 6 h and then incubated for an additional 18 h in the presence of LPS (1 μg/mL). LPS was used as a pro-inflammatory and pro-oxidant stimulus. Cells untreated and not exposed to LPS stimulus were used as controls. DCFDA fluorescent probe was used for sensitive and rapid quantification of intracellular ROS in response to LPS stimulus. Cells were seeded in a 96-well plate (20 × 10^3 cells/well) in complete medium and incubated overnight. After 6 h starvation, cells were treated for an additional 18 h with OA and OA loaded in the two different formulations (ME-1-OA and ME-2-OA) at various concentrations, in the absence or presence of LPS (1 μg/mL). […] Next, DCFDA probe (10 μM in PBS) was added to each well and incubated in the dark for 1.5 h at 37 °C. Fluorescence values were measured at excitation and emission wavelengths of 485 and 538 nm, respectively, using a fluorescence microplate reader (Fluoroskan Ascent^TM FL Microplate Fluorometer, Thermo Fisher Scientific, (Waltham, MA, USA). The level of intracellular ROS was normalized to cell viability. Data were reported in percentage terms compared with untreated control cells not exposed to LPS. The experiment was repeated in triplicate.

[2] = In vitro release, dialysis bag method, EtOH:PBS (30:70); assay type: physicochemical; conditions: 6 h, 37 °C
Experimental: The release studies of OA from MEs in comparison to OA solution (SDS 0.5% p/V in H2O) were carried out with the dialysis bag method (regenerated cellulose dialysis membranes, Spectrum Laboratories, Inc., Breda, The Netherlands, MWCO 12–14 kD). Two mL of the OA-MEs or the solution were placed into a 12–14 kDa dialysis membrane and immersed into 200 mL of the release medium at 37 °C under magnetic stirring, using EtOH:PBS (30:70) as the release medium. In vitro release study was also carried out in the simulated gastric fluid (SGF) medium at pH 1.2 for 2 h followed by simulated intestinal fluid (SIF) at pH 6.8 for 6 h. The composition of the gastric fluid was 2 g of NaCl and 7 mL of HCl per liter of deionized water. The intestinal fluid was composed of 6.805 g of KH2PO4 and 0.896 g of NaOH per liter of deionized water. At predetermined time intervals, 1 mL of each release medium was withdrawn and replaced with an equal volume of fresh solution. The OA concentration in samples was finally determined by HPLC-DAD. All studies were performed in triplicate.
To evaluate the kinetics and mechanism of drug release from the microemulsions, the Korsmeyer–Peppas model, Hixson–Crowell model and Higuchi model, and the first order and zero order mathematical models, were used, and the best-fitted model was selected based on high regression coefficient (R^2) value for the release data.

[3] = Saturation solubility of OA in different oils and surfactants; assay type: physicochemical; conditions: thermodynamic from solid
Experimental: The solubility of OA in different vehicles was defined by adding an excess of OA to 2 mL of each of the tested solvents/tensides: Water, Capmul PG-8/NF, Capmul PG-12/NF, Capryol 90, Captex 300, Captex 355, Cremophor EL, Etyl Oleate, Isoprpyl myristate, Labrafac lipophile, Labrafilm 1944, Labrafilm 2125, Labrasol, Labrasol ALF, Lauroglycol 90, Nigella Oil, PEG400, Soybean Oil, Sunflower Oil, Transcutol, Triacetine, Tween 20 and Tween 80. Each mixture of solvent and OA was stirred for 24 h at 25 °C, then it was centrifuged at 14,000× g for 10 min. After removing the precipitate, the supernatant was diluted with MeOH and analyzed by HPLC-DAD to determine the concentration of the OA. The analyses were performed in triplicate.

[4] = set-up: method as in PMID 17163409; conditions: rats, oral doses of 25 and 50 mg/kg; cited from earlier work
[5] = set-up: method as in PMID 17163409; conditions: water; cited from earlier work
[6] = Parallel artificial membrane permeability assay (PAMPA); assay type: in vitro ADME; conditions: room temperature, read-out: permeability coefficient (Pe)
Experimental: The test was carried out in a 96-well, MultiScreen-IP PAMPA (Millipore corporation) filter plate in order to evaluate the ability of compounds to diffuse from a donor compartment into an acceptor compartment. EtOH:PBS (30:70) mixture was selected as the acceptor medium for ME-1-OA and EtOH:PBS (5:95) for ME-2-OA. Each membrane was activated with a combination of lecithin and cholesterol, 10 g/L and 8 g/L, respectively, in 1,7-octadiene. Immediately after the deposition of the solution (5 µL), 250 µL of OA solution and appropriately diluted MEs-OA were added to each well of the donor plate. Each receptor plate was filled with 250 µL of acceptor medium. The plate was incubated at room temperature for 1 h. Then, the samples were withdrawn, properly diluted with methanol, centrifuged for 10 min at 14,000× g, and the OA concentration determined by HPLC-DAD. The permeability coefficient Pe (cm/s) was calculated according to the following equation: Pe=−ln 1−CAt/Ceq/A 1/VD+1/VAt where A is the active surface area (0.3 cm^2 × apparent porosity of the filter), VD and VA the well volume of the donor and acceptor plate (mL), respectively, t the incubation time (s), and CAt and CDt the concentration of OA in the acceptor and donor plate at time t, respectively. Ceq was calculated according to: Ceq=CDt × VD+CAt × VA/VA+VD

RAW 264.7 cells [7] = assay: MTT assay, LPS-induced reduction of cell viability; assay type: cell-based, murine; conditions: 18 h
Experimental: In in vitro cell-based experiments, cells were incubated in serum-free DMEM medium (starvation medium) for 6 h and then incubated for an additional 18 h in the presence of LPS (1 μg/mL). LPS was used as a pro-inflammatory and pro-oxidant stimulus. Cells untreated and not exposed to LPS stimulus were used as controls. The Methyl Thiazolyl Tetrazolium (MTT) assay was used to assess the viability of RAW 264.7 cells under various experimental conditions. Cells were seeded in a 96-well plate (15 × 10^3 cells/well) in complete medium and incubated overnight. Next, cells were starved for 6 h, and then treated for an additional 18 h with OA and OA loaded in the two different formulations (ME-1-OA and ME-2-OA) at various concentrations, in the absence or presence of LPS (1 μg/mL). […] Subsequently, cells were incubated with a 0.5 mg/mL solution of MTT (100 μL/well) for 1 h in the dark at 37 °C. After a wash in PBS, the insoluble formazan crystals were dissolved by adding 100 μL/well of dimethyl sulfoxide (DMSO). The iMARK microplate reader (Bio-Rad, Hercules, CA, USA) was used to measure absorbance values at a wavelength of 595 nm. Data were reported in percentage terms compared with untreated control cells not exposed to LPS. The experiment was repeated in triplicate.

RAW 264.7 cells [8] = assay: MTT assay, cell viability without LPS; assay type: cell-based, murine; conditions: 18 h, compared to untreated control cells
Experimental: The murine macrophages RAW 264.7 cell line (ATCC TIB-71™) was used in this study. Cells were grown in DMEM culture medium supplemented with L-glutamine (2 mM), streptomycin (100 µg/mL) and penicillin (100 U/mL), and 10% Heat-Inactivated Fetal Bovine Serum (HI-FBS), at 37 °C in 5% CO2 atmosphere. HI-FBS was obtained by incubating FBS at 55 °C for 30 min. Upon reaching 90% confluence, macrophage subcultures were prepared by scraping cells and adding appropriate dilutions of the cell suspension to a new plate. The culture medium was replaced every 3 days. The Methyl Thiazolyl Tetrazolium (MTT) assay was used to assess the viability of RAW 264.7 cells under various experimental conditions. Cells were seeded in a 96-well plate (15 × 10^3 cells/well) in complete medium and incubated overnight. Next, cells were starved for 6 h, and then treated for an additional 18 h with OA and OA loaded in the two different formulations (ME-1-OA and ME-2-OA) at various concentrations, in the absence or presence of LPS (1 μg/mL). […] Subsequently, cells were incubated with a 0.5 mg/mL solution of MTT (100 μL/well) for 1 h in the dark at 37 °C. After a wash in PBS, the insoluble formazan crystals were dissolved by adding 100 μL/well of dimethyl sulfoxide (DMSO). The iMARK microplate reader (Bio-Rad, Hercules, CA, USA) was used to measure absorbance values at a wavelength of 595 nm. […]

[9] = LPS 1 μg/mL, compared with unstimulated control cells

In the case of `CC1(C)CC[C@]2(C(=O)O)CC[C@]3(C)C(=CC[C@@H]4[C@@]5(C)CC[C@H](O)C(C)(C)[C@@H]5CC[C@]43C)[C@@H]2C1` [OA, Oleanolic acid], the “effect against LPS-induced intracellular ROS production” value (RAW 264.7 cells [1]; free OA 0.25–1 μg/mL with LPS 1 μg/mL) is reported as “mild but significant”, the OA released [2] is reported as 23.6 ± 1.25% and the solubility at 24 h ([3]; oil or lipid, in Capmul PG-8/NF, 24 h at 25 °C) is reported as 19.72 ± 0.13 mg/mL (≈ 43.2 mM). The solubility at 24 h ([3]; oil or lipid, in Capmul PG-12/NF, 24 h at 25 °C) was 16.4 ± 1.04 mg/mL (≈ 36 mM), the solubility at 24 h ([3]; oil or lipid, in Capryol 90, 24 h at 25 °C) was 24.9 ± 0.9 mg/mL (≈ 54.6 mM) and the solubility at 24 h ([3]; oil or lipid, in Captex 300, 24 h at 25 °C) was 3.74 ± 0.1 mg/mL (≈ 8.19 mM). The solubility at 24 h ([3]; oil or lipid, in Captex 355, 24 h at 25 °C) was 3.19 ± 0.24 mg/mL (≈ 6.98 mM), the solubility at 24 h ([3]; oil or lipid, in Etyloleate, 24 h at 25 °C) was 2.13 ± 0.21 mg/mL (≈ 4.66 mM) and the solubility at 24 h ([3]; oil or lipid, in Isopropil myristate, 24 h at 25 °C) was 9.44 ± 1.05 mg/mL (≈ 20.7 mM). For the same compound, the solubility at 24 h ([3]; oil or lipid, in Labrafac Lipophile, 24 h at 25 °C) was 13.3 ± 0.87 mg/mL (≈ 29.1 mM), the solubility at 24 h ([3]; oil or lipid, in Labrasol ALF, 24 h at 25 °C) was 12 ± 0.84 mg/mL (≈ 26.2 mM) and the solubility at 24 h ([3]; oil or lipid, in Labrasol, 24 h at 25 °C) was 13.3 ± 0.21 mg/mL (≈ 29.1 mM). For the same compound, the solubility at 24 h ([3]; oil or lipid, in Lauroglycole 90, 24 h at 25 °C) was 10.8 ± 0.56 mg/mL (≈ 23.5 mM), the solubility at 24 h ([3]; oil or lipid, in Nigella oil, 24 h at 25 °C) was 35.4 ± 1.41 mg/mL (≈ 77.5 mM) and the solubility at 24 h ([3]; oil or lipid, in Soybean oil, 24 h at 25 °C) was 1.06 ± 0.17 mg/mL (≈ 2.32 mM). For the same compound, the solubility at 24 h ([3]; oil or lipid, in Sunflower oil, 24 h at 25 °C) was 11.8 ± 0.46 mg/mL (≈ 25.7 mM), the solubility at 24 h ([3]; oil or lipid, in Triacetine, 24 h at 25 °C) was 3.09 ± 0.17 mg/mL (≈ 6.77 mM) and the solubility at 24 h ([3]; organic solvent or mixture, in PEG 400, 24 h at 25 °C) was 8.49 ± 0.58 mg/mL (≈ 18.6 mM). The solubility at 24 h ([3]; organic solvent or mixture, in Transcutol HP, 24 h at 25 °C) was 41 ± 2.41 mg/mL (≈ 89.8 mM), the solubility at 24 h ([3]; in Cremophor EL, 24 h at 25 °C) was 28.3 ± 0.93 mg/mL (≈ 62 mM) and the solubility at 24 h ([3]; in Tween 20, 24 h at 25 °C) was 6.19 ± 0.58 mg/mL (≈ 13.6 mM). For the same compound, the solubility at 24 h ([3]; in Tween 80, 24 h at 25 °C) was 4.56 ± 0.36 mg/mL (≈ 9.98 mM), the oral bioavailability [4] was 0.7% and the aqueous solubility [5] was 1.75 ng/mL (≈ 3.83e-06 mM). For the same compound, the Papp at 1 h [6] was 0.369 ×10⁻⁶ cm/s, the “protective effect against LPS-induced reduction of cell viability” value (RAW 264.7 cells [7]; free OA 0.05–1 μg/mL with LPS 1 μg/mL) was “no significant protective effect” and the “change in cell viability” value (RAW 264.7 cells [8]; 0.05–1 μg/mL) was “No significant change in cell viability”. For the same compound, the “reduction in cell viability” value (RAW 264.7 cells [8]; 2.5–10 μg/mL) was 25–30%.
For “lipopolysaccharide [LPS, reference compound]”, the “intracellular ROS levels” value (RAW 264.7 cells [1]; [9]) was 165 ± 7% and the cell viability (RAW 264.7 cells [7]; [9]) was 70 ± 7%.
